Key:
fibroblasts = experiment: Collagen synthesis in fibroblasts (PICP, collagen measuring kit); format: cell-based; settings: 72 hours; for Amount of PICP produced in fibroblasts (average ± SEM): non-treated control 47.1 ± 9.7; for collagen synthesis increase as compared to the non-treated control: fibroblasts, 0.3 or 1.0 μg/ml (concentration not given)
Description: The following experiment was performed by using fibroblasts in order to evaluate the effect of sphingosine kinase activator upon collagen synthesis.
Each of K6PC4, K6PC-5, K6PC-7 and K6PC-9 was dissolved in DMSO at a concentration of 0.3 and 1.0 μg/ml. The solutions were used as samples and analyzed for collagen synthesis after incubation for 72 hours. 72 hours after the treatment of the sample, culture solution was discarded, cells were washed with serum-free DMEM three times, and cells were cultured again by using flesh serum-free DMEM. After incubation, supernatant in each well was combined and analyzed for the amount of PICP (procollagen type I C-peptide) by using a collagen measuring kit. The standard solution contained in the collagen measuring kit was diluted with a sample and absorption at 450 nm was measured to construct a standard concentration curve (see the following Table 2).
To an antibody-coated microtiter plate comprising a primary collagen antibody applied unifomrily thereto, 100 μl of an antibody-POD conjugate solution and the cell supernatant collected as described above were added, followed by incubation at 37° C. for 3 hours, to induce an antigen-antibody reaction. Then, the reaction mixture was subjected to washing and color developing. After the reaction, the reaction mixture developed a yellow color, wherein the yellowness depended on reaction degrees. Also, 96 well plates developing a yellow color were determined at 450 nm by using a microtiter plate reader.

keratinocytes = experiment: Differentiation of keratinocytes (western blotting of involucrin and keratin-1); format: cell-based; settings: 10 μM, 48 hours, FIG. 2
Description: In order to evaluate the effect of the above compound according to the present invention upon differentiation of keratinocytes, each of K6PC4, K6PC-5, K6PC-7 and K6PC-9 was dissolved in DMSO at a concentration of 10 μM and used as sample. Evaluation was performed by using the western blotting method. As differentiation markers, involucrin and keratine-1, which were differentiation markers of keratinocytes, were measured. Next, 48 hours after the treatment of samples, the culture solution was discarded and the cells were washed with PBS and collected by filtering. The collected cells were washed again and subjected to centrifugal separation to remove supernatant. The cells were dissolved in a solvent and subjected to centrifugal separation at 12,000 rpm for 10 minutes, thereby removing cell membranes, etc. Protein concentration was determined by the Bradford method. Proteins were separated by mini gel type SDS-PAGE (polyacrylamide gel electrohoresis) and transferred to a PVDF (polyvinylidene fluoride) membrane at 100V for 1 hour, so that gel-like proteins were subjected to blotting with a transfer membrane. Then, the membrane was colored with Ponceau S solution to determine whether transfer was accomplished or not. The membrane was blocked by using TTBS (TBS+0.1% Tween 20) solution containing 5% non-fat dried milk. In order to check the amount of involucrin as differentiation marker of keratinocytes, primary antibody involucrin (Neomarkers Co.) was diluted at a ratio of about 1/200 to 1.400, and keratin-1 (Covance Co.) was diluted at a ratio of about 1/1000. Reactions were performed overnight at 4° C. As secondary antibody, anti-mouse IgG and anti-rabbit IgG combined with horseradish peroxidase (HRP) was diluted at a ratio of 1:2000. Then, the secondary antibody was bonded to the primary antibody by making them react at room temperature for 1 hour. The membrane was washed with TTBS three times, reacted with an ECL substrate (Amersham Co.) for 1-3 minutes, and exposed to X-ray films.

RBL-2H3 cell line = experiment: Intracellular calcium movement (fura-2 fluorescence); format: cell-based; settings: RBL-2H3 cells, fura-2, FIGS. 1a to 1d
Description: First, the following experiment for calcium movement was performed in order to determine whether the above sphingosine kinase activator compounds activate sphingosine-1-phosphate, so as to cause intracellular calcium movement, which is a typical activity specific to sphingosine-1-phosphate.
The sphingosine kinase activator compounds were determined for capability of inducing intracellular calcium movement by using a RBL-2H3 cell line, which is one of the typical cell lines showing intracellular calcium movement. The cells are cultured by using an RPMI 1640 culture medium and the cells were washed simultaneously with removal of the medium. Then, 10 μM of fura-2/Am and 250 μl M of sulfinpyrazone were added thereto, followed by incubation for 30 minutes. Cell pellets were obtained by centrifugal separation and the cell pellets were dispersed in Ca^2+-free Locke's solution. The dispersion was divided into a unit of 1×10^6 cells for use in treating samples. Next, the cells were introduced into a cuvet of a fluorescence microscope, each sphingosine kinase activator compound was added thereto, and intracellular calcium movement was observed by the fluorescence microscope (RF-5310PC, Spectrofluoro photometer, SHIMADZU). When intracellular calcium ions are detected, they cause fluorescence by bonding with fura-2. Therefore, a degree of calcium movement caused by a sample was evaluated by calculating a difference between the measurement of fura-2 ([…]) bonded with calcium and that of non-bonded fura-2 ([…]).

sphingosine kinase = target: T1, sphingosine kinase (Mus musculus, UniProt Q8CI15); experiment: Activation of sphingosine kinase (C17-sphingosine-1-phosphate production, HPLC); format: cell-based; settings: F9-12 cells, 24 hours, 50 μM compound, PMA 300 nM; for C17-SIP Production: non-treated control 51.72; for increase in production of sphingosine-1-phosphate: versus non-treated control
T1 construct: host or cells: F9-12 cells
Description: The following test for activation of sphingosine kinase was performed to determine whether the effects of the above compounds upon intracellular calcium signal transfer as described in Example 1 were caused by activation of sphingosine kinase.
F9-12 cells were treated with 300 nM of PMA ([…]) as positive control, and 50 μM of each of K6PC4 and K6PC-5 for 24 hours and collected. Then, activity of sphingosine kinase was measured as production of C17-sphingosine-1-phosphate based on 50 μg of protein. Sphingosine-1-phospate was extracted from the collected cells by the steps of: (1) treating with trypsin-EDTA, (2) centrifugal separation at 1,500 rpm for 10 minutes, and (3) washing with PBS, followed by freeze-drying. Then, PBS was added to the freeze-dried product and the resultant product was treated with ultrasonic waves to destroy cells. Sphingosine-1-phosphate was determined by HPLC, and OPA (o-phthalaldehyde) reagent and boric acid buffer were added to the extracted sample and the mixture was reacted at room temperature for 20 minutes. For the HPLC quantitive analysis, fluorescence intensity was measured at each wavelength of 340 nm and 455 nm with a solution in 90% acetonitrile, and a ratio to the internal standard was calculated.

hairless mouse = format: in vivo; settings: mouse, in vivo
Excerpt: To evaluate effect of the sphingosine kinase activator upon inhibition of steroid side effects, a steroid was applied to a hairless mouse. Typically, side effects caused by long-term or excessive dose of steroids include skin atrophy expressed by thinning of skin and weakening of skin functions, and a rebound phenomenon including reoccurrence of conditions caused by stopping use of steroids. It is reported that the main cause for such side effects is inhibition of fibroblast activity and a decrease in collagen production (S. Hammer et al., J. Cell. Biochem, 91, 840-851, 2004), Therefore, it is expected that the compound according to the present invention enhances collagen synthesis and differentiation of keratinocytes, and thus inhibits such side effects caused by steroids. To perform a test, a steroid, i.e. 0.05% chlobetason-17-propionate, and […]-5 according to the present invention (1.0% in PEG:EtOH=7:3) were applied to a hairless mouse and changes in the skin were observed. The treating agents were applied to the back of a hairless mouse 9 times per day and the tissue was collected. Then, the epidermis and dermis were observed by carrying out the H & E staining method (hematoxylin and eosin staining) known to one skilled in the art.

T1 sequence (Q8CI15 1-381 isoform Q8CI15-3): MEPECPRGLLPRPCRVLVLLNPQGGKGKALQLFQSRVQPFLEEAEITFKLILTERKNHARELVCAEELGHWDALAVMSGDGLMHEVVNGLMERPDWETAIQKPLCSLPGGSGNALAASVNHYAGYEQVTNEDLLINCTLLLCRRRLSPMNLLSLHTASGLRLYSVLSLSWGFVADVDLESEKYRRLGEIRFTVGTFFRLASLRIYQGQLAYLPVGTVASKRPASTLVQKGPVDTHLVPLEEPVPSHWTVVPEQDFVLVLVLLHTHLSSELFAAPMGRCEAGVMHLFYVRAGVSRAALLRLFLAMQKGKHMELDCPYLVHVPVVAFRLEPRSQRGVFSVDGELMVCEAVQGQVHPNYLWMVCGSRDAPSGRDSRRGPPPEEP

| SMILES | C17-SIP Production (sphingosine kinase) [pmol/min/mg] | increase in production of sphingosine-1-phosphate (sphingosine kinase) | Amount of PICP produced in fibroblasts (average ± SEM) (fibroblasts; 0.3 μg/ml) | Amount of PICP produced in fibroblasts (average ± SEM) (fibroblasts; 1.0 μg/ml) | collagen synthesis increase as compared to the non-treated control (fibroblasts) | expression of differentiation markers (involucrin, keratin-1) (keratinocytes) | intracellular calcium movement (RBL-2H3 cell line) | changes in epidermis and dermis (steroid applied alone) (hairless mouse) |
| --- | --- | --- | --- | --- | --- | --- | --- | --- |
| CCCCCCCC(=O)C(CCCCCC)C(=O)NCC(O)CO (stereo not drawn) [K6PC-4, N-(2,3-dihydroxypropyl)-2-hexyl-3-oxo-decanamide] | 67.69 | about 30% | 62.01 ± 2.5 | 80.51 ± 4.4 | about 1.7 times | expressed the differentiation markers | caused intracellular calcium movement | – |
| CCCCCCCCCCCCCC(=O)O[C@@H]1[C@@H](C)[C@@]2(O)[C@@H](C=C(CO)C[C@]3(O)C(=O)C(C)=C[C@@H]23)[C@@H]2C(C)(C)[C@]12OC(C)=O [PMA, phorbol microstate acetate, reference compound] | 76.76 | about 48% | – | – | – | – | – | – |
| CCC(=O)O[C@]1(C(=O)CCl)[C@@H](C)C[C@H]2[C@@H]3CCC4=CC(=O)C=C[C@]4(C)[C@@]3(F)[C@@H](O)C[C@@]21C [chlobetason-17-propionate, reference compound] | – | – | – | – | – | – | – | significant thinning of the epidermis and abnormal changes in the dermis |

Continued, in another order:

| C17-SIP Production (sphingosine kinase) [pmol/min/mg] | increase in production of sphingosine-1-phosphate (sphingosine kinase) | SMILES | Amount of PICP produced in fibroblasts (average ± SEM) (fibroblasts; 0.3 μg/ml) | Amount of PICP produced in fibroblasts (average ± SEM) (fibroblasts; 1.0 μg/ml) | collagen synthesis increase as compared to the non-treated control (fibroblasts) | expression of differentiation markers (involucrin, keratin-1) (keratinocytes) | intracellular calcium movement (RBL-2H3 cell line) | changes in epidermis and dermis (steroid applied alone) (hairless mouse) |
| --- | --- | --- | --- | --- | --- | --- | --- | --- |
| 75.51 | about 46% | CCCCCCCC(=O)C(CCCCCC)C(=O)NC(C)(CO)CO (stereo not drawn) [K6PC-7, N-(2-methyl-1,3-dihydroxyisopropyl)-2-hexyl-3-oxo-decanamide] | 90.3 ± 12.5 | 87.3 ± 14.9 | about 1.9 times | expressed the differentiation markers | caused intracellular calcium movement | – |
| 66.72 | about 30% | CCCCCCCC(=O)C(CCCCCC)C(=O)NCCO (stereo not drawn) [K6PC-9, N-ethanol-2-hexyl-3-oxo-decanamide] | 95.0 ± 5.2 | 86.7 ± 8.2 | about 2.0 times | expressed the differentiation markers | caused intracellular calcium movement | – |

Reference: US20060094790A1, “Use of sphingosine kinase activator as skin disease treating agent and method for treating skin diseases using the same” (priority 2004, published 2006)
